Assay results: patent US20100144793A1, “NOVEL COMPOUNDS FOR THE TREATMENT OF DISEASES ASSOCIATED WITH AMYLOID OR AMYLOID-LIKE PROTEINS” (AC IMMUNE SA, priority 2006, published 2010)
Counter-ions that a name gives are not always drawn. Like-named read-outs stand apart in the source and are kept apart here.

Experiments:
Aβ1-42 = target: T1, Aβ1-42 (Homo sapiens, UniProt P05067); experiment: Thioflavin T spectrofluorescence assay: inhibition of Aβ1-42 aggregation; format: biochemical
T1 construct: Aβ1-42 lyophilized powder (Bachem) was reconstituted in hexafluoroisopropanol (HFIP) to 1 mM; purchased Bachem
T1 sequence (P05067 672-713 limits assumed): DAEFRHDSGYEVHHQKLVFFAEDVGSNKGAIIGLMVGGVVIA
Protocol: The objective of this example was to evaluate the capacity of the compounds of the invention to inhibit the aggregation of (Aβ)1-42 peptide and to disaggregate pre-aggregated Aβ1-42 using a thioflavin T spectrofluorescence assay.
Aβ1-42 lyophilized powder (Bachem) was reconstituted in hexafluoroisopropanol (HFIP) to 1 mM. The peptide solution was sonicated for 15 min at room temperature, agitated overnight, and aliquots were placed into non-siliconized microcentrifuge tubes. The HFIP was then evaporated under a stream of argon. The resulting peptide film was dried under vacuum for 10 min, tightly sealed and stored at −80° C. until used.
Aβ1-42 peptide film was dissolved in DMSO to reach 400 μM. Assay solution in PBS was prepared in non-siliconized incubation tubes to reach the following concentrations: 330 μM small molecule, 33 μM Aβ1-42, 10 μM thioflavin T (ThT), and 12.8% DMSO. Therefore, the final molar ratio of small molecule to Aβ1-42 was 10:1. A positive control without a small molecule was prepared to measure maximum RFU. A negative control without Aβ1-42 was prepared for each small molecule. 3-aminopyrazole trimer (Trimer) was tested in all assays to ascertain reproducibility between independent experiments. The solutions were then incubated for 24 h at 37° C., and the spectrofluorescence (relative fluorescence units; RFU) read in six replicates in black 384-well assay plates (Perkin-Elmer) on a Perkin-Elmer FluoroCount spectrofluorometer. Inhibition of aggregation is expressed as mean % inhibition±1 standard deviation (SD) according to the following equation: […]

[1] = target: T2, Oregon Green labeled Aβ(1-42) (Homo sapiens, UniProt P05067); experiment: FCS-assay with 5 nM Oregon Green labeled Aβ-peptide (disaggregation of preformed aggregates); format: biochemical
T2 construct: DMSO-stock solutions of Oregon Green labeled Aβ(1-42) 1:1 with deionized water
T2 sequence (P05067 672-713 limits assumed): as above
Protocol: In order to analyse the disaggregating properties of the compounds, preformed aggregates were used, which were induced straight before the FCS-measurement by diluting low concentrated (500 nM) DMSO-stock solutions of Oregon Green labeled Aβ(1-42) 1:1 with deionized water. The final concentration of Oregon Green labeled Aβ-peptide was 5 nM in 1×PBS and 3% DMSO.
To improve the reproducibility of the measurements of the concentration dependencies all samples were prepared fourfold.

[2] = 10:1 small molecule to Aβ1-42 molar ratio
[3] = Table 4, 10:1 small molecule to Aβ1-42 molar ratio, 24 h at 37° C., mean ± SD of 2 independent experiments, read-out: % inhibition
[4] = read-out: Percentage of the “number of peaks” value compared to the control reaction without added ligand
[5] = read-out: Percentage of the “peaks × height“ value compared to the control reaction without added ligand
[6] = Table 3, 10:1 small molecule to Aβ1-42 molar ratio, 24 h at 37° C., mean ± SD of two independent experiments, read-out: % Inhibition

Compound	inhibition of Aβ1-42 aggregation, in words (Aβ1-42; [2])	inhibition at 330 µM (Aβ1-42; 24 h) [%]	further results
CN(C)c1ccc(-c2cc(NCCNc3cc(-c4ccc(N(C)C)cc4)[nH]n3)n[nH]2)cc1.Cl.Cl [Compound 1aj, N^1,N^2-bis(5-(4-(Dimethylamino)phenyl)-1H-pyrazol-3-yl)ethane-1,2-diamine bishydrochloride]	strong inhibition of aggregation	–	inhibition at 330 µM (Aβ1-42; [3]): 79.1 ± 4.8%; remaining activity at 0.2 µM ([1]; 200 nM compound, 5 nM labeled Aβ-peptide, read-out: Percentage of the “number of peaks” value compared to the control reaction without added ligand): 57.4%; remaining activity at 0.2 µM ([1]; 200 nM compound, 5 nM labeled Aβ-peptide, read-out: Percentage of the “peaks × height“ value compared to the control reaction without added ligand): 61.9%
Clc1ccc(-c2c[nH]nc2NCCNc2n[nH]cc2-c2ccc(Cl)cc2)cc1 [Compound 1s, N^1,N^2-bis(4-(4-Chlorophenyl)-1H-pyrazol-3-yl)ethane-1,2-diamine bishydrochloride]	–	66.6 ± 4.1	–
c1ccc(Cc2cc(NCCNc3cc(Cc4ccccc4)[nH]n3)n[nH]2)cc1 [Compound 1l, N^1,N^2-bis(5-Benzyl-1H-pyrazol-3-yl)ethane-1,2-diamine dihydrochloride]	–	57.5 ± 7.6	–
Cc1cc(NCCNc2cc(C)[nH]n2)n[nH]1 [Compound 1a, N^1,N^2-bis(5-Methyl-1H-pyrazol-3-yl)ethane-1,2-diamine bishydrochloride]	–	37.6 ± 0.7	–
Cc1ccc(-c2cc(NCCNc3cc(-c4ccc(Cl)cc4)[nH]n3)n[nH]2)cc1 (as salt: hydrochloride) [Compound 1ae, N-(5-(4-Chlorophenyl)-1H-pyrazol-3-yl)-N′-(5-p-tolyl-1H-pyrazol-3-yl)ethane-1,2-diamine bishydrochloride]	–	–	melting point: 182 °C
c1[nH]nc(NCCNc2n[nH]cc2C2CC2)c1C1CC1 [Compound 1v, N^1,N^2-bis(4-Cyclopropyl-1H-pyrazol-3-yl)ethane-1,2-diamine bishydrochloride]	–	15.3 ± 2.9	–
c1ccc(-c2cc(NCCNc3cc(-c4ccccn4)[nH]n3)n[nH]2)nc1 [Compound 1al, N^1,N^2-bis(5-(Pyridin-2-yl)-1H-pyrazol-3-yl)ethane-1,2-diamine tetra-hydrochloride]	strong inhibition of aggregation	90.1 ± 4.7	remaining activity at 0.2 µM [1, 4]: 57.9%; remaining activity at 0.2 µM [1, 5]: 48%
Cc1ccc(-c2cc(NCC(C)(C)CNc3cc(-c4ccc(C)cc4)[nH]n3)n[nH]2)cc1 [Compound 1an, dihydrochloride]	strong inhibition of aggregation	55.9 ± 7.4	–
Cc1cc(NC(=O)C(=O)Nc2cc(C)[nH]n2)n[nH]1 [Ampox, reference compound]	–	38.7 ± 5.2	–
Cc1cc(NCC(=O)Nc2cc(C)[nH]n2)n[nH]1 [Compound 1w, N-(5-Methyl-1H-pyrazol-3-yl)-2-(5-methyl-1H-pyrazol-3-ylamino)acetamide]	–	–	inhibition at 330 µM (Aβ1-42; [6]): 7.3 ± 10.4%
Cc1ccc(-c2cc(NCc3ccc(CNc4cc(-c5ccc(C)cc5)[nH]n4)cc3)n[nH]2)cc1 [Compound 1ap, N,N′-(1,4-Phenylenebis(methylene))bis(5-p-tolyl-1H-pyrazol-3-amine) dihydrochloride]	strong inhibition of aggregation	66.2 ± 1.6	–
c1c(NCCNc2cc(C3CC3)[nH]n2)n[nH]c1C1CC1 [Compound 1i, N^1,N^2-bis(5-Cyclopropyl-1H-pyrazol-3-yl)ethane-1,2-diamine bishydrochloride]	–	53.6 ± 27	–
Cc1ccc(-c2cc(NCc3cccc(CNc4cc(-c5ccc(C)cc5)[nH]n4)c3)n[nH]2)cc1 [Compound 1ao, N,N′-(1,3-Phenylenebis(methylene))bis(5-p-tolyl-1H-pyrazol-3-amine) dihydrochloride]	–	72.9 ± 0.7	–
c1csc(-c2c[nH]nc2NCCNc2n[nH]cc2-c2cccs2)c1 [Compound 1r, N^1,N^2-bis(4-(Thiophen-2-yl)-1H-pyrazol-3-yl)ethane-1,2-diamine bishydrochloride]	–	49.5 ± 0.8	–
Cc1cc(NCCNc2n[nH]c(C)c2-c2ccc(Cl)cc2)n[nH]1 [Compound 1k, N,N′-(4-(4-Chlorophenyl)-5-methyl-1H-pyrazol-3-yl-N′-(5-methyl-1H-pyrazol-3-yl)ethane-1,2-diaminebishydrochloride]	–	–	inhibition at 330 µM (Aβ1-42; Table 5, 10:1 small molecule to Aβ1-42 molar ratio, 24 h at 37° C., mean ± SD of two independent experiments, read-out: % inhibition): 40.4 ± 13%
c1cc(NCCNc2cc[nH]n2)n[nH]1 [Compound 1b, N^1N^2-bis(1H-Pyrazol-3-yl)ethane-1,2-diamine bishydrochloride]	–	–	inhibition at 330 µM (Aβ1-42; [6]): 9.7 ± 0.3%
COc1ccc(-c2c(NCCNc3n[nH]c(C)c3-c3ccc(OC)cc3)n[nH]c2C)cc1 [Compound 1t, N^1,N^2-bis(5-Methyl-4-methoxyphenyl)-1H-pyrazol-3-yl)ethane-1,2-diamine dihydrochloride]	–	31.4 ± 0.5	–
c1csc(-c2cc(NCCNc3cc(-c4cccs4)[nH]n3)n[nH]2)c1 [Compound 1h, N^1,N^2-bis(5-(2-Thienyl)-1H-pyrazol-3-yl)ethane-1,2-diamine bishydrochloride]	–	69.9 ± 1.4	–
Fc1ccc(-c2cc(NCCNc3cc(-c4ccc(F)cc4)[nH]n3)n[nH]2)cc1 [Compound 1ak, N^1,N^2-bis(5-(4-Fluorophenyl)-1H-pyrazol-3-yl)ethane-1,2-diamine bishydrochloride]	strong inhibition of aggregation	74 ± 5.9	remaining activity at 0.1 µM [1, 4]: 57.4%; remaining activity at 0.2 µM [1, 4]: 51%; remaining activity at 0.1 µM [1, 5]: 43.3%; remaining activity at 0.2 µM [1, 5]: 44.8%
Cc1ccc(-c2cc(NCc3cccc(CNc4cc(-c5ccc(C)cc5)[nH]n4)n3)n[nH]2)cc1 [Compound 1aq, N,N′-(Pyridine-2,6-diylbis(methylene))bis(5-p-tolyl-1H-pyrazol-3-amine) trishydrochloride]	–	82.9 ± 2.7	–
c1ccc(-c2cc(NCCNc3cc(-c4ccccc4)[nH]n3)n[nH]2)cc1 [Compound 1e, N^1,N^2-bis(5-Phenyl)-1H-pyrazol-3-yl)ethane-1,2-diamine bishydrochloride]	strong inhibition of aggregation	–	inhibition at 330 µM (Aβ1-42; [3]): 82.5 ± 5.8%
CC(C)(C)c1cc(NCCNc2cc(C(C)(C)C)[nH]n2)n[nH]1 [Compound 1j, N^1,N^2-bis(5-tert-Butyl-1H-pyrazol-3-yl)ethane-1,2-diamine bishydrochloride]	–	11.5 ± 2.9	–
c1coc(-c2cc(NCCNc3cc(-c4ccco4)[nH]n3)n[nH]2)c1 [Compound 1m, N^1,N^2-bis(5-(2-Furyl)-1H-pyrazol-3-yl)ethane-1,2-diamine bishydrochloride]	strong inhibition of aggregation	52.9 ± 2.7	–
c1ccc(Cc2c[nH]nc2NCCNc2n[nH]cc2Cc2ccccc2)cc1 [Compound 1q, N^1,N^2-bis(4-Benzyl-1H-pyrazol-3-yl)ethane-1,2-diamine dihydrochloride]	–	59.2 ± 4.9	–
FC(F)(F)c1cccc2[nH]nc(NCCNc3n[nH]c4cccc(C(F)(F)F)c34)c12 [Compound 1ai, N,N′-bis(4-(Trifluoromethyl)-1H-indazol-3-yl)ethane-1,2-diamine bishydrochloride]	strong inhibition of aggregation	50.4 ± 8.4	–
Cc1[nH]nc(NCCNc2n[nH]c(C)c2-c2ccccc2)c1-c1ccccc1 [Compound 1c, N^1,N^2-bis(5-Methyl-4-phenyl-1H-pyrazol-3-yl)ethane-1,2-diamine bishydrochloride]	–	52.7 ± 1.3	–
